{"source": "patent US12448372B2", "about": "“Class of triaromatic compounds targeting bifunctional phosphorylation site of STAT3 and applications thereof” (SHANGHAI YUYAO BIOTECH LTD., priority 2019, dated 2025)", "key": {"[1]": {"molecular_target": "STAT3 protein (Homo sapiens, UniProt P40763)", "sequence (P40763 whole entry)": "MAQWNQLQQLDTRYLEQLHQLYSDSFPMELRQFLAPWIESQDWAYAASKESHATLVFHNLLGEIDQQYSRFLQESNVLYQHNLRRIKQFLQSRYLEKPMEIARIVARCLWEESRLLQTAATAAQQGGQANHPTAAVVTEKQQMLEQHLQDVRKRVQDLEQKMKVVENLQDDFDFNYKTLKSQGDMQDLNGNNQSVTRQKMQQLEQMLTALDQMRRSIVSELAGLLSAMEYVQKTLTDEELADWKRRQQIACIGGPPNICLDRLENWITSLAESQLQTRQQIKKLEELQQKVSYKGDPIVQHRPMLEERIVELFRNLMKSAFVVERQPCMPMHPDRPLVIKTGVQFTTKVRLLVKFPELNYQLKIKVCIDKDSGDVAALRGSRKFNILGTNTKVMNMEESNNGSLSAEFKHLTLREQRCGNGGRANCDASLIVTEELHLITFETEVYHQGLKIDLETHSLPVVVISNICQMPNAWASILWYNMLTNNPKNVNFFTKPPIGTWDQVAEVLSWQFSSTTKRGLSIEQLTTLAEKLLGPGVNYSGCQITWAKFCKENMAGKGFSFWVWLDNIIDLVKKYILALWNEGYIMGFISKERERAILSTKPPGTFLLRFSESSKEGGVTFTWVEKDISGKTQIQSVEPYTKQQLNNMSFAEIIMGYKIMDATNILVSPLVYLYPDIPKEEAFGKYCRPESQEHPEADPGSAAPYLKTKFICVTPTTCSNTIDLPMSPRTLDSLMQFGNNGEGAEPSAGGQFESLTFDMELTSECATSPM", "experiment": "Binding activity to STAT3 protein by microscale thermophoresis (MST)", "settings": "purified STAT3 recombinant protein", "summary_of_the_method": "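His-tag-labelled purified recombinant STAT3 (final 100–200 nM) was mixed with compounds at 16 concentrations in MST buffer and incubated 30 min protected from light. Thermophoresis read in capillaries gave KD values.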"}, "[2]": {"test_system": "MKN45", "experiment": "Cell proliferation by MTS method, MKN45", "assay_type": "cell-based", "settings": "Homo sapiens, MKN-45", "summary_of_the_method": "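Absorbance at 490 nm of MTS-derived formazan served as the viability read-out, measured after cells at 1-20×10^3 per well had been treated with graded compound concentrations for 24-96 h. IC50 values come from three repeat experiments.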"}, "[3]": {"test_system": "PANC-1", "experiment": "Cell proliferation by MTS method, PANC-1", "assay_type": "cell-based", "settings": "Homo sapiens, Pancreatic Cancer", "excerpt": "(§1) (2) Detection of Cell Proliferation by MTS Method\n(§2) The MTS assay is a method for indirectly determining the number of living cells via colourimetric method. MTS is a newly synthesised tetrazole compound that reflects cell viability, which can be reduced by succinate dehydrogenase in the mitochondria of living cells to an orange-coloured formazan with an absorbance of the reduced product measured at 490 nm being in proportion to the number of living cells, thus reflecting the cell viability. This assay can be used to evaluate the effect of the compound on the proliferation of pancreatic cancer cells, thereby determining the inhibitory effect of the compound on the proliferation of pancreatic cancer cells and to calculate the IC^50. Each cells were inoculated uniformly into a 96-well plate at a density of 1-20×10^3 cells/well, 100 μL per well, and placed in a constant temperature incubator until the cells adhered to the wall. […] Under light-proof conditions, MTS was added and well mixed, the mixture was placed in a constant temperature incubator at 37° C., and the light absorption value were measured using an enzyme marker at 490 nm and the experiment was repeated for three times, IC50 was calculated with GraphPad5 Prism software."}, "[4]": {"test_system": "CFPAC-1", "experiment": "Cell proliferation by MTS method, CFPAC-1", "assay_type": "cell-based", "settings": "Homo sapiens, Pancreatic Cancer", "excerpt": "as §1, §2"}, "[5]": {"test_system": "MGC803", "experiment": "Cell proliferation by MTS method, MGC803", "assay_type": "cell-based", "settings": "Homo sapiens, MGC-803, gastric Cancer", "excerpt": "as §1, §2"}, "[6]": {"test_system": "HCT-116", "experiment": "Cell proliferation by MTS method, HCT-116", "assay_type": "cell-based", "settings": "Homo sapiens, Colon Cancer", "excerpt": "as §1, §2"}, "[7]": {"test_system": "A549", "experiment": "Cell proliferation by MTS method, A549", "assay_type": "cell-based", "settings": "Homo sapiens, Lung Cancer", "excerpt": "as §1, §2"}, "[8]": {"test_system": "H460", "experiment": "Cell proliferation by MTS method, H460", "assay_type": "cell-based", "settings": "Homo sapiens, NCI-H460, Lung Cancer", "excerpt": "as §1, §2"}, "[9]": {"test_system": "H23", "experiment": "Cell proliferation by MTS method, H23", "assay_type": "cell-based", "settings": "Homo sapiens, NCI-H23, Lung Cancer", "excerpt": "as §1, §2"}, "[10]": {"test_system": "PLC/PRF-5", "experiment": "Cell proliferation by MTS method, PLC/PRF-5", "assay_type": "cell-based", "settings": "Homo sapiens, Liver Cancer", "excerpt": "as §1, §2"}, "[11]": {"test_system": "SK-hep1", "experiment": "Cell proliferation by MTS method, SK-hep1", "assay_type": "cell-based", "settings": "Homo sapiens, Liver Cancer", "excerpt": "as §1, §2"}, "[12]": {"test_system": "HCCC9810", "experiment": "Cell proliferation by MTS method, HCCC9810", "assay_type": "cell-based", "settings": "Liver Cancer", "excerpt": "as §1, §2"}, "[13]": {"test_system": "Human pancreatic cancer cells (ASPC-1)", "experiment": "In situ growth metastasis model of pancreatic cancer, ASPC-1 in nude mice", "assay_type": "in vivo", "settings": "in situ growth metastasis model (ASPC-1), nude mice, 5, 10, 20 mg/kg by gavage once a day, FIG. 4D", "experimental": "(2) In situ growth metastasis model of pancreatic cancer. Human pancreatic cancer cells (ASPC-1) were used to bear tumors in the pancreas of age-appropriate nude mice, 6 or more mice in each group. One week after injection of tumour cells, all mice were randomly divided to the control group, WB737-5 mg/kg low dose group, 10 mg/kg medium dose group, 20 mg/kg high dose group and positive compound group. Different doses of WB737 or the positive compound were administered by gavage, and mice of control group were administered the same dose of solvent orally […], dosing once a day. During the experiment, the time and number of mice died due to pancreatic cancer metastasis were counted, and the results of the experiment were counted and survival curves were plotted."}, "[14]": {"molecular_target": "STAT3 SH2 domain (Homo sapiens, UniProt P40763)", "sequence (P40763 580-670 limits assumed)": "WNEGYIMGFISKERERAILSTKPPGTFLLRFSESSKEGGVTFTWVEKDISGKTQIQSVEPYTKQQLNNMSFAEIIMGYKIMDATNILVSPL", "experiment": "Microscale thermophoresis binding to STAT3 SH2 domain", "settings": "MST, FIG. 5A; read-out: affinity for the STAT3 SH2 domain", "excerpt": "The microscale thermophoresis (MST) technique is a simple, rapid, and accurate method for quantifying biomolecular interactions. It can measure the movement of molecules in a microscopic temperature gradient field, as well as detect changes of molecular hydration shell, charge and size. When the Nanotemper microscale thermophoresis instrument locally heated by a infrared laser, molecules will move in a directional manner, then the molecular distribution ratio in the temperature gradient field are analyzed by a fluorescence to detect whether a small molecule compound binds to a target protein. The experimental operation is as follows: firstly, compounds to be tested are diluted in a gradient using MST test buffer, total 16 concentrations being configured; subsequently, the purified STAT3 recombinant protein is labeled using the HIS tag labeling kit, and the final concentration of the labeled protein is 100-200 nM; the labeled STAT3 proteins are well mixed with the diluted compounds and incubated and protected from light for 30 minutes; finally the samples were loaded by capillary tube and detected on the instrument. The binding constants (K^D) of small molecules to STAT3 protein were analyzed by Mo. analysis software.\n(1) Microscale Thermophoresis Experiment\nThe method is as described in Example 40."}, "[15]": {"test_system": "human pancreatic cancer cells PANC-1", "experiment": "Subcutaneous tumor-bearing experiment in nude mice, PANC-1", "quoted_text": "(1-10)×10^6 human pancreatic cancer cells PANC-1 and MIAPACA-2 were injected subcutaneously into the right side of the back of immunodeficient mice (BALB/c-nude, nude mice, 5-6 weeks), and when the tumours grew to about 100 mm^3, the mice were evenly divided into five groups, i. e. blank control group; 5 mg/kg WB737 low-dose group; 10 mg/kg WB737 medium-dose group; 20 mg/kg WB737 high-dose group; 10 mg/kg IACS-010759 positive control group; all the above compounds were formulated with 0.5% MC and administered by gavage. Tumour volume and mouse weight were measured every four days, and tumour volume was calculated according to the formula of volume=length×width^2×0.52. After 3 weeks post-administration, mice were sacrificed and subcutaneous tumours were peeled off, weighed and photographed."}}, "note": "“Also recorded” adds a separate entry of the source. Where two headings read alike, the source gives them in different places."}
{"molecule": "Cn1c(C(=O)N2CCN(Cc3ccc(OCC(F)(F)F)cc3)CC2)cc2ccc(Oc3cnc(-c4nc(-c5ccc(C(F)(F)F)cc5)no4)cn3)cc21", "note": "[Example 6, (6-((5-(3-(4-(trifluoromethyl)phenyl)-1,2,4-oxadiazol-5-yl)pyrazin-2-yl)oxy)1-methyl-1H-indol-2-yl)(4-(4-(2,2,2-trifluoroethoxy)benzyl)piperazin-1-yl)methanone]", "values": [{"measurement": "Kd", "setting": "[1]", "value": "< 10", "unit": "nM"}, {"measurement": "IC50", "setting": "[2]; Table 1, MKN45, read-out: Tumour cell proliferative activity/IC50(nM) gastric Cancer MKN45", "value": "< 10", "unit": "nM"}, {"measurement": "IC50", "setting": "[2]; gastric Cancer, MKN45, read-out: IC50", "value": 1.6, "unit": "nM"}, {"measurement": "IC50", "setting": "[3]", "value": 8.1, "unit": "nM"}, {"measurement": "IC50", "setting": "[4]", "value": 3.1, "unit": "nM"}, {"measurement": "IC50", "setting": "[5]", "value": 3.6, "unit": "nM"}, {"measurement": "IC50", "setting": "[6]", "value": 11.3, "unit": "nM"}, {"measurement": "IC50", "setting": "[7]", "value": 11.9, "unit": "nM"}, {"measurement": "IC50", "setting": "[8]", "value": 4.6, "unit": "nM"}, {"measurement": "IC50", "setting": "[9]", "value": 2.9, "unit": "nM"}, {"measurement": "IC50", "setting": "[10]", "value": 1.8, "unit": "nM"}, {"measurement": "IC50", "setting": "[11]", "value": 18.6, "unit": "nM"}, {"measurement": "IC50", "setting": "[12]", "value": 73.3, "unit": "nM"}, {"measurement": "survival of mice", "setting": "[13]", "value": "significantly prolongs the survival of mice"}, {"measurement": "Kd", "setting": "[14]", "value": 2.25, "unit": "nM"}, {"measurement": "effect on the body weight of mice", "setting": "[15]; PANC-1 subcutaneous model, gavage, WB737 5-20 mg/kg, IACS-010759 10 mg/kg, FIG. 2D/5C", "value": "no significant effect on the body weight of mice; also recorded: good tolerability"}, {"measurement": "tumor growth (tumor volume and tumor weight)", "setting": "[15]; PANC-1 subcutaneous, BALB/c-nude mice, 5, 10, 20 mg/kg by gavage, 3 weeks, FIG. 2", "value": "significantly inhibits the growth of pancreatic tumour"}, {"measurement": "phosphorylation of STAT3^Y705/S727 bifunctional phosphorylation site in tumour tissue (WB and IHC)", "setting": "[15]; PANC-1 tumour tissues, FIG. 2E and 2F", "value": "dose-dependently inhibits phosphorylation"}]}
